# Reference: patent US20220226392A1, “COMPOSITIONS AND PROCESS FOR INTEGRATING CELLS INTO EPITHELIUM” (Medizinische Hochschule Hannover, priority 2019, published 2022)
# Tests used:
# [1] = test system: human primary venous endothelial cells; assay: Integration of suspended eGFP-expressing iPSC-derived endothelial cells into an endothelial cell layer pre-treated with 17β-estradiol; type: cell-based
# Description: A confluent layer of human primary venous endothelial cells cultivated in EGM-medium was used as a representative for endothelium. This endothelial cell layer was contacted with a first composition containing 17β-estradiol in a concentration yielding 100 μM 17β-estradiol in fresh cell culture medium. After incubating this endothelial cell layer under cell culture conditions for 30 min in the presence of 100 μM 17β-estradiol, the medium was removed and replaced by a suspension of iPSC-derived endothelial cells that were genetically manipulated to constitutively express enhanced green fluorescent green protein (eGFP) in EGM-medium without added 17β-estradiol.
# [2] = test system: human primary venous endothelial cells; assay: Loosening and regeneration of a confluent endothelial cell monolayer after contact with 17β-estradiol (phase contrast, anti-VE-cadherin and DAPI staining); type: cell-based
# Description: As an example for an endothelium, human primary venous endothelial cells were cultivated in EGM-medium under cell culture conditions until reaching confluence. Then, the medium was removed from this exemplary epithelium and replaced by fresh EGM-medium containing 17β-estradiol in a concentration of 1 μM, 10 μM, 30 μM, 100 μM, or 300 μM. The concentrations of 17β-estradiol are also indicated in the rows of FIG. 1. […] Subsequent to the presence of the 17β-estradiol in medium, this first composition was removed and replaced by EGM-medium without added 17β-estradiol, with subsequent incubation for 4 h under cell culture conditions. The result is depicted in FIG. 1 in column C in phase contrast, and in column D after immunological staining for VE-cadherin as an essential component of adherens junctions between cells, and DAPI staining for nuclei.
# [3] = test system: human umbilical vein endothelial cells; conditions: 10 nM 17β-estradiol; cited from earlier work
# [4] = test system: uterine human microvascular endothelial cells; conditions: 10 nM 17β-estradiol; cited from earlier work
structure (smiles),measurement,setting,value
C[C@]12CC[C@@H]3c4ccc(O)cc4CC[C@H]3[C@@H]1CC[C@@H]2O [17β-estradiol],integration of eGFP-labelled endothelial cells of the suspension into the endothelial layer,"[1]; 100 μM 17β-estradiol for 30 min, then 4 h incubation with cell suspension without 17β-estradiol, FIG. 2 column B",efficiently integrate between the original endothelial cells
same,effect on endothelial cell layer and VE-cadherin expression,"[1]; 100 μM 17β-estradiol, 30 min, FIG. 2 column A",loosening of the cell layer and loss of VE-cadherin expression
same,"concentration at which the endothelial layer was loosened, respectively shows disintegration","[2]; 30 min in EGM-medium, tested 1, 10, 30, 100, 300 μM, FIG. 1 columns A, B",at least 10 μM
same,state of the endothelial layer after removal of 17β-estradiol,"[2]; 4 h incubation in EGM-medium without 17β-estradiol after 30 min exposure, VE-cadherin and DAPI staining, FIG. 1 columns C, D",a closed layer of the endothelial cells is re-established
same,permeability for FITC-labelled dextran of monolayer,[3],increases the permeability
same,permeability for FITC-labelled dextran of monolayer,[4],increases the permeability
